Assay results reported in patent US11465984B2, “Compound having ERK kinase inhibitory activity and use thereof” (SHANGHAI HAIHE PHARMACEUTICAL CO., LTD., priority 2017, dated 2022).

These compounds were tested against ERK2 kinase (Homo sapiens (Human), UniProt P28482) (assay: In vitro enzyme activity assay, ERK2 kinase (Z'-LYTE)). Conditions: class symbols; read-out: ERK2 IC50.
Type: biochemical
Description: Half inhibitory activity of the compounds of the invention against ERK2 kinase (IC50 value) was determined in this Example.
• Enzyme: extracellular signal-regulated kinase ERK2 kinase (PV3595, Invitrogen) • Kit: Z′-LYTE® Protein Kinase Assay Kit-Ser/Thr 3 Peptide (PV3176, Invitrogen) • Kit components: The substrate Z′-LYTE™ Ser/Thr 3 Peptide (PV3200) • The phosphorylation substrate Z′-LYTE™ Ser/Thr 3 Phospho-peptide (PV3215) • 5× kinase buffer: 250 mM HEPES (pH 7.5), 50 mM MgCl2, • 5 mM EGTA, 0.05% BRIJ-35 (PV3189, Invitrogen) • ATP (PV3227, Invitrogen) • Development Reagent A (PV3295, Invitrogen) • Development Buffer (P3127, Invitrogen) • Stop Reagent (P3094, Invitrogen) • Microplate reader: The multil-mode microplate reader PerkinElmer EnVision® • Microplate: black shallow 384-well microplate (6008269, PerkinElmer) (2). Assay Protocol:
The substrate Z′-LYTE™ Ser/Thr 3 Peptide, the phosphorylation substrate Z′-LYTE™ Ser/Thr 3 Phospho-peptide, 1× kinase buffer (5× kinase buffer was diluted with ultra pure water by five times), ATP, Development Reagent A, Development Buffer, Stop Reagent were balanced to room temperature for use. The screening concentrations for detecting the effect of the compounds of the invention on the ERK kinase activity were seven 3-fold serial dilutions starting from 1 μM (from 0.2 μM for the positive drug control) using 4% DMSO as co-solvent. 5 μL enzyme system (50 mM HEPES pH 7.5, 1 mM EGTA, 10 mM MgCl2, 0.01% Brij-35, 4 uM substrate, 0.8 ng/μL enzyme), 2.5 μL Compound, 2.5 μL 400 μM ATP were added into 384 well microplate, followed by incubation at room temperature for 60 min in the dark. After the reaction was completed, 5 μl the developing agent (Development Reagent A) diluted with the developing buffer (Development Buffer) was added to all reaction wells, followed by incubation at the room temperature for 60 min in the dark. 5 μL the terminating agent was added to each well to terminate the reaction. The fluorescence was determined using the multil-mode microplate reader PerkinElmer EnVision® (excitation wavelength 400 nm, emission wavelength 460 nm and 528 nm).
The inhibition rate of each well was calculated from 100% phosphorylation substrate well and 0% phosphorylation substrate well using the data analysis method below: phosphorylation %=1−{(emission rate×F100%−C100%)/[C0%−C100%+emission rate×(F100%−F0%)]}×100 inhibition %=100×(1−phosphorylation % of the test compound well/phosphorylation % of the 0% inhibition control) • wherein: • emission rate=fluorescence emission of the sample at 445 nm/fluorescence emission of the sample at 520 nm • F100%=the average fluorescence emission of the control well of 100% phosphorylation substrate at 520 nm • F0%=the average fluorescence emission of the control well of 0% phosphorylation substrate at 520 nm • C100%=the average fluorescence emission of the control well of 100% phosphorylation substrate at 445 nm • C0%=the average fluorescence emission of the control well of 0% phosphorylation substrate at 445 nm
Tests were carried out in duplicate. IC50 values were calculated from the inhibition of the kinase by the test compounds at a range of different concentrations.

Chain of ERK2 kinase (P28482 whole entry): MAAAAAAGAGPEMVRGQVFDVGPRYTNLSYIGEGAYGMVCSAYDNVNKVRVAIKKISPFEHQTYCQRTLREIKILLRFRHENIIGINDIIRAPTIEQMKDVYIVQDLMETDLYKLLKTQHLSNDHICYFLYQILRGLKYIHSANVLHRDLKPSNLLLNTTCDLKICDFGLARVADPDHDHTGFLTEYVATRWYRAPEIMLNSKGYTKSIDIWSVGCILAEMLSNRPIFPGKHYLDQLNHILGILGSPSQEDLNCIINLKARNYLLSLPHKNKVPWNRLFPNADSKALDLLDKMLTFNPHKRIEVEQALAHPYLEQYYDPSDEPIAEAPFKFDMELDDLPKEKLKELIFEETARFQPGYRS

IC50 [nM] | SMILES
10 to 100 | O=C(Cc1cccnc1Cl)N1CCc2cc(-c3ccnc(NC4CCC(O)CC4)n3)cc(F)c21 (centres unmarked) [Example P3, 2-(2-chloropyridin-3-yl)-1-(7-fluoro-5-(2-((4-hydroxylcyclohexyl)amino)pyrimidin-4-yl)indolin-1-yl)ethan-1-one]
10 to 100 | Cn1nccc1Nc1nccc(-c2cc(F)c3c(c2)CCN3C(=O)Cc2c(F)ccnc2Cl)n1 [Example P33, 2-(2-chloro-4-fluoropyridin-3-yl)-1-(7-fluoro-5-(2-((1-methyl-1H-pyrazol-5-yl)amino)pyrimidin-4-yl)indolin-1-yl)ethan-1-one]
10 to 100 | Cn1nccc1Nc1cc(-c2cc(Cl)c3c(c2)CCN3C(=O)Cc2cccnc2Cl)ccn1 [Example P14, 1-(7-chloro-5-(2-((1-methyl-1H-pyrazol-5-yl)amino)pyridin-4-yl)indolin-1-yl)-2-(2-chloropyridin-3-yl)ethan-1-one]
10 to 100 | Cn1nccc1Nc1cc(-c2cc(F)c3c(c2)CCN3C(=O)Cc2cccnc2Cl)ncn1 [Example P44, 2-(2-chloropyridin-3-yl)-1-(7-fluoro-5-(6-((1-methyl-1H-pyrazol-5-yl)amino)pyrimidin-4-yl)indolin-1-yl)ethan-1-one]
≤ 10 | Cc1cnc(Nc2ccnn2C)nc1-c1cc(F)c2c(c1)CCN2C(=O)Cc1cccnc1Cl [Example P47, 2-(2-chloropyridin-3-yl)-1-(7-fluoro-5-(5-methyl-2-((1-methyl-1H-pyrazol-5-yl)amino)pyrimidin-4-yl)indolin-1-yl)ethan-1-one]
10 to 100 | Cn1nccc1Nc1cc(-c2cc(F)c3c(c2)CCN3C(=O)Cc2cccc(Cl)n2)ccn1 [Example P29, 2-(6-chloropyridin-2-yl)-1-(7-fluoro-5-(2-((1-methyl-1H-pyrazol-5-yl)amino)pyridin-4-yl)indolin-1-yl)ethan-1-one]
≤ 10 | [2H]C([2H])([2H])n1nccc1Nc1cc(-c2cc(F)c3c(c2)CCN3C(=O)Cc2cccnc2Cl)ccn1 [Example P46, 2-(2-chloropyridin-3-yl)-1-(7-fluoro-5-(2-((1-(deuteriomethyl)-1H-pyrazol-5-yl)amino)pyridin-4-yl)indolin-1-yl)ethan-1-one]
100 to 1000 | CC(CO)Nc1cc(-c2cc(F)c3c(c2)CCN3C(=O)Cc2cccnc2Cl)ccn1 (centres unmarked) [Example P8, 2-(2-chloropyridin-3-yl)-1-(7-fluoro-5-(2-((1-hydroxylprop-2-yl)amino)pyridin-4-yl)indolin-1-yl)ethan-1-one]
10 to 100 | O=C(Cc1cccnc1Cl)N1CCc2cc(-c3ccnc(N[C@H]4C[C@@H](O)C4)c3)cc(F)c21 [Example P40]
10 to 100 | O=C(Cc1cccnc1Cl)N1CCc2cc(-c3ccnc(NC4CCC(O)C4)n3)cc(F)c21 (centres unmarked) [Example P4, 2-(2-chloropyridin-3-yl)-1-(7-fluoro-5-(2-((3-hydroxylcyclopentyl)amino)pyrimidin-4-yl)indolin-1-yl)ethan-1-one]
≤ 10 | COCC1Cc2cc(-c3nc(Nc4ccnn4C)ncc3C)cc(F)c2N1C(=O)Cc1cccnc1Cl (centres unmarked) [Example P49, 2-(2-chloropyridin-3-yl)-1-(7-fluoro-2-(methoxymethyl)-5-(5-methyl-2-((1-methyl-1H-pyrazol-5-yl)amino)pyrimidin-4-yl)indolin-1-yl)ethan-1-one]
100 to 1000 | O=C(Cc1cccnc1Cl)N1CCc2cc(-c3ccnc(NC4CC(O)C4)c3)cc(F)c21 (racemic) [Example P53, 2-(2-chloropyridin-3-yl)-1-(7-fluoro-5-(2-((3-hydroxylcyclobutyl)amino)pyridin-4-yl)indolin-1-yl)ethan-1-one]
10 to 100 | Cn1nccc1Nc1cc(-c2cc(F)c3c(c2)CCN3C(=O)CCc2cccnc2Cl)ccn1 [Example P55, 3-(2-chloropyridin-3-yl)-1-(7-fluoro-5-(2-((1-methyl-1H-pyrazol-5-yl)amino)pyridin-4-yl)indolin-1-yl)propan-1-one]
10 to 100 | Cn1nccc1Nc1nccc(-c2cc(F)c3c(c2)CCN3C(=O)Cc2cc(F)ccc2Cl)n1 [Example P38, 2-(2-chloro-5-fluorophenyl)-1-(7-fluoro-5-(2-((1-methyl-1H-pyrazol-5-yl)amino)pyrimidin-4-yl)indolin-1-yl)ethan-1-one]
≤ 10 | CC1Cc2cc(-c3ccnc(Nc4ccnn4C)n3)cc(F)c2N1C(=O)Cc1cccnc1Cl (centres unmarked) [Example P32, 2-(2-chloropyridin-3-yl)-1-(7-fluoro-2-methyl-5-(2-((1-methyl-1H-pyrazol-5-yl)amino)pyrimidin-4-yl)indolin-1-yl)ethan-1-one]
10 to 100 | Cn1nccc1Nc1nccc(-c2cc(F)c3c(c2)CCN3C(=O)Cc2ccc(F)cc2F)n1 [Example P12, 2-(2,4-difluorophenyl)-1-(7-fluoro-5-(2-((1-methyl-1H-pyrazol-5-yl)amino)pyrimidin-4-yl)indolin-1-yl)ethan-1-one]
10 to 100 | Cn1nccc1Nc1nccc(-c2cc(F)c3c(c2)CCN3C(=O)Cc2ccccc2C#N)n1 [Example P30, 2-(2-(7-fluoro-5-(2-((1-methyl-1H-pyrazol-5-yl)amino)pyrimidin-4-yl)indolin-1-yl)-2-oxoethyl)benzonitrile]
≤ 10 | COCC1Cc2cc(-c3ccnc(Nc4ccnn4C)c3)cc(F)c2N1C(=O)Cc1cccnc1Cl (centres unmarked) [Example P58, 2-(2-chloropyridin-3-yl)-1-(7-fluoro-2-(methoxymethyl)-5-(2-((1-methyl-1H-pyrazol-5-yl)amino)pyridin-4-yl)indolin-1-yl)ethan-1-one]
100 to 1000 | Cn1nccc1Nc1cc(-c2cc(F)c3c(c2)CCN3C(=O)Cc2cccnc2C2CCOCC2)ccn1 [Example P57, 1-(7-fluoro-5-(2-((1-methyl-1H-pyrazol-5-yl)amino)pyridin-4-yl)indolin-1-yl)-2-(2-(tetrahydro-2H-pyran-4-yl)pyridin-3-yl)ethan-1-one]
10 to 100 | Cn1nc(CO)cc1Nc1cc(-c2cc(F)c3c(c2)CCN3C(=O)Cc2cccnc2Cl)ccn1 [Example P35, 2-(2-chloropyridin-3-yl)-1-(7-fluoro-5-(2-((3-(hydroxylmethyl)-1-methyl-1H-pyrazol-5-yl)amino)pyridin-4-yl)indolin-1-yl)ethan-1-one]
100 to 1000 | Cn1nccc1Nc1nccc(-c2cc(F)c3c(c2)CCN3C(=O)Cc2cc(F)ccc2F)n1 [Example P39, 2-(2,5-difluorophenyl)-1-(7-fluoro-5-(2-((1-methyl-1H-pyrazol-5-yl)amino)pyrimidin-4-yl)indolin-1-yl)ethan-1-one]
10 to 100 | O=C(Cc1cccnc1Cl)N1CCc2cc(-c3ccnc(NC4CCOC4)n3)cc(F)c21 (centres unmarked) [Example P6, 2-(2-chloropyridin-3-yl)-1-(7-fluoro-5-(2-((tetrahydrofuran-3-yl)amino)pyrimidin-4-yl)indolin-1-yl)ethan-1-one]
100 to 1000 | Cn1nccc1Nc1nccc(-c2cc(F)c3c(c2)CCN3C(=O)Cc2ccc(Cl)cc2)n1 [Example P19, 2-(4-chlorophenyl)-1-(7-fluoro-5-(2-((1-methyl-1H-pyrazol-5-yl)amino)pyrimidin-4-yl)indolin-1-yl)ethan-1-one]

Same assay, conditions: read-out: IC50 against ERK2 kinase

IC50 [nM] | SMILES
10 | Cn1nccc1Nc1cc(-c2cc(F)c3c(c2)CCN3C(=O)C(O)c2cccnc2Cl)ccn1 (centres unmarked) [Example P60, 2-(2-chloropyridin-3-yl)-1-(7-fluoro-5-(2-((1-methyl-1H-pyrazol-5-yl)amino)pyridin-4-yl)indolin-1-yl)-2-hydroxylethan-1-one]
4.8 | CC1CN(C(=O)Cc2cccnc2Cl)c2c(F)cc(-c3ccnc(Nc4ccnn4C)c3)cc21 (centres unmarked) [Example P59, 2-(2-chloropyridin-3-yl)-1-(7-fluoro-3-methyl-5-(2-((1-methyl-1H-pyrazol-5-yl)amino)pyridin-4-yl)indolin-1-yl)ethan-1-one]
2.7 | C[C@H]1Cc2cc(-c3ccnc(Nc4ccnn4C)c3)cc(F)c2N1C(=O)Cc1cccnc1Cl [Example P42]
